These results are taken from patent publication US7902252B2, “Inhibitors of D-amino acid oxidase” (Sepracor, Inc., priority 2007, dated 2011).

The assay addresses Human DAAO (Homo sapiens, UniProt P14920). Put plainly: D-Amino Acid Oxidase enzyme assay (D-serine, horseradish peroxidase/Amplex Red coupled fluorescence). To be noted: D-serine 5 mM, pH 7.4. In kind it is biochemical. As for the experimental part:
DAAO enzyme activity was measured using the substrate D-serine at its Michaelis-Menton Km of 5 mM. The rate of oxidation is measured as a rate of production of hydrogen peroxide, which was detected using the enzyme horseradish peroxidase (Sigma cat. No. P-8375). This coupled reaction uses the enzyme substrate Amplex Red (Molecular Probes), which is converted to the fluorescent reaction product, resorufin (excitation 530-560 nm; emission ˜590 nm). Although DAAO has a higher pH optimum, all reagents were prepared in 50 mM sodium phosphate buffer at pH 7.4 and inhibition curves were generated at this pH.
The final concentrations of components in 200 μl total volume per well (black clear-bottom 96-well plate, Costar) were:
(a) Horseradish peroxidase: 4 Units per mL
(d) Amplex Red reagent: 50 uM
The reactions were initiated by addition of DAAO enzyme and the fluorescence was monitored. H2O2 was added at 16 uM final concentration to a control well on each plate to test for compound interference with a coupled enzyme. Inhibition curves were generated in the presence of varying concentrations of the inhibitor and IC50 values were calculated for each inhibitor.

Sequence of Human DAAO (P14920 whole entry): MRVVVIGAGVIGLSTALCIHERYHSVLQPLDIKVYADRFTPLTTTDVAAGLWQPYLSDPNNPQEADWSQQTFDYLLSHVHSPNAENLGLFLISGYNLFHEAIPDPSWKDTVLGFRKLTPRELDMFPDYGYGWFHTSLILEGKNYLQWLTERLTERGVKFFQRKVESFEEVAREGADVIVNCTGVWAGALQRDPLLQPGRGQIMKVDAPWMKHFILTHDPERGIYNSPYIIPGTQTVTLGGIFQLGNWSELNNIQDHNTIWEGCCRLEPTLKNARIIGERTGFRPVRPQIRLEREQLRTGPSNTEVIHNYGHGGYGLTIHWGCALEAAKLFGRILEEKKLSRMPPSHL

As for `O=C(O)c1cc2c([nH]1)C(=Cc1ccccc1)CC2` (mixture of isomers) [Compound 25, (E/Z)-6-benzylidene-1,4,5,6-tetrahydrocyclopenta[b]pyrrole-2-carboxylic acid], the IC50 is no more than 100 µM.

Molecule `CC1CCc2[nH]c(C(=O)O)cc21` (racemic) [Compound 4, 4-methyl-1,4,5,6-tetrahydrocyclopenta[b]pyrrole-2-carboxylic acid] displayed an IC50 of no more than 1 µM.

Molecule `CCCC1CCc2[nH]c(C(=O)O)cc21` (racemic) [Compound 7, 4-propyl-1,4,5,6-tetrahydrocyclopenta[b]pyrrole-2-carboxylic acid] returned an IC50 of no more than 0.1 µM.

`O=C(O)c1cc2c([nH]1)CCC2Cc1ccc(Cl)cc1` (racemic) [Compound 14, 4-(4-chlorobenzyl)-1,4,5,6-tetrahydrocyclopenta[b]pyrrole-2-carboxylic acid]: the IC50 was no more than 0.1 µM.

The molecule `O=C(O)c1cc2c([nH]1)CCC2CCc1ccccc1` (racemic) [Compound 18, 4-phenethyl-1,4,5,6-tetrahydrocyclopenta[b]pyrrole-2-carboxylic acid] came in with an IC50 of no more than 1 µM.

For `O=C(O)c1cc2c([nH]1)CCC2Cc1ccc(F)c(F)c1` (racemic) [Compound 42, 4-(3,4-difluorobenzyl)-1,4,5,6-tetrahydrocyclopenta[b]pyrrole-2-carboxylic acid], the IC50 is no more than 0.1 µM.

With `O=C(O)c1cc2c([nH]1)CCC2Cc1ccc(F)cc1F` (racemic) [Compound 45, 4-(2,4-difluorobenzyl)-1,4,5,6-tetrahydrocyclopenta[b]pyrrole-2-carboxylic acid], the IC50 is no more than 0.1 µM.

`O=C(O)c1cc2c([nH]1)CCC2Cc1ccc(F)c(Cl)c1` (racemic) [Compound 48, 4-(3-chloro-4-fluorobenzyl)-1,4,5,6-tetrahydrocyclopenta[b]pyrrole-2-carboxylic acid] had an IC50 of no more than 0.1 µM.

The molecule `Cc1cc(F)ccc1CC1CCc2[nH]c(C(=O)O)cc21` (racemic) [Compound 51, 4-(4-fluoro-2-methylbenzyl)-1,4,5,6-tetrahydrocyclopenta[b]pyrrole-2-carboxylic acid] showed an IC50 of no more than 0.1 µM.

On to `O=C(O)c1cc2c([nH]1)CCC2Cc1ccc(Cl)c(Cl)c1` (racemic) [Compound 57, 4-(3,4-dichlorobenzyl)-1,4,5,6-tetrahydrocyclopenta[b]pyrrole-2-carboxylic acid], for which the IC50 is no more than 0.1 µM.

`O=C(O)c1cc2c([nH]1)CCC2Cc1ccc(Br)cc1` (racemic) [Compound 60, 4-(4-bromobenzyl)-1,4,5,6-tetrahydrocyclopenta[b]pyrrole-2-carboxylic acid] showed an IC50 of no more than 0.1 µM.

`O=C(O)c1cc2c([nH]1)CCC2Cc1cccc(Br)c1` (racemic) [Compound 63, 4-(3-bromobenzyl)-1,4,5,6-tetrahydrocyclopenta[b]pyrrole-2-carboxylic acid] returned an IC50 of no more than 0.1 µM.

For `COc1cccc(CC2CCc3[nH]c(C(=O)O)cc32)c1` (racemic) [Compound 66, 4-(3-methoxybenzyl)-1,4,5,6-tetrahydrocyclopenta[b]pyrrole-2-carboxylic acid], the IC50 is no more than 0.1 µM.

Turning to `O=C(O)c1cc2c([nH]1)CCC2Cc1cccc(-c2ccco2)c1` (racemic) [Compound 87, 4-(3-(furan-2-yl)benzyl)-1,4,5,6-tetrahydrocyclopenta[b]pyrrole-2-carboxylic acid], the IC50 is no more than 100 µM.

Take `O=C(O)c1cc2c([nH]1)CCC2Cc1cccc(-c2ccc[nH]2)c1` (racemic) [Compound 91, 4-(3-(1H-pyrrol-2-yl)benzyl)-1,4,5,6-tetrahydrocyclopenta[b]pyrrole-2-carboxylic acid]: the IC50 was no more than 0.1 µM.

In the case of `O=C(O)c1cc2c([nH]1)CCC2c1cccc(F)c1` (racemic) [Compound 94, 4-(3-fluorophenyl)-1,4,5,6-tetrahydrocyclopenta[b]pyrrole-2-carboxylic acid], the IC50 was no more than 0.1 µM.

Take `O=C(O)c1cc2c([nH]1)CCC2c1cc(F)cc(F)c1` (racemic) [Compound 98, 4-(3,5-difluorophenyl)-1,4,5,6-tetrahydrocyclopenta[b]pyrrole-2-carboxylic acid]: the IC50 was no more than 1 µM.

On to `O=C(O)c1cc2c([nH]1)C(c1ccc(-c3ccccc3)cc1)CC2` (racemic) [Compound 118, 6-(biphenyl-4-yl)-1,4,5,6-tetrahydrocyclopenta[b]pyrrole-2-carboxylic acid], for which the IC50 is no more than 1 µM.

Turning to `O=C(O)c1cc2c([nH]1)C(Cc1cccc(Cl)c1)CC2` (racemic) [Compound 121, 6-(3-chlorobenzyl)-1,4,5,6-tetrahydrocyclopenta[b]pyrrole-2-carboxylic acid], the IC50 is no more than 0.1 µM.

Consider `O=C(O)c1cc2c([nH]1)C(Cc1cccc(Br)c1)CC2` (racemic) [Compound 125, 6-(3-bromobenzyl)-1,4,5,6-tetrahydrocyclopenta[b]pyrrole-2-carboxylic acid], for which the half-maximal inhibitory concentration (IC50) was no more than 0.1 µM.

Regarding `COc1cccc(CC2CCc3cc(C(=O)O)[nH]c32)c1` (racemic) [Compound 129, 6-(3-methoxybenzyl)-1,4,5,6-tetrahydrocyclopenta[b]pyrrole-2-carboxylic acid], the 50% inhibitory concentration (IC50) is no more than 0.1 µM.

`O=C(O)c1cc2c([nH]1)C(CCCc1ccccc1)CC2` (racemic) [Compound 134, 6-(3-phenylpropyl)-1,4,5,6-tetrahydrocyclopenta[b]pyrrole-2-carboxylic acid] returned an IC50 of no more than 1 µM.

As to `C[C@H]1[C@H]2Cc3[nH]c(C(=O)O)cc3[C@@H]12` (racemic) [Compound 141, ±(1S,1aS,5aR)-1-methyl-1a,4,5,5a-tetrahydro-1H-4-aza-cyclopropa[α]pentalene-3-carboxylic acid], the IC50 is no more than 0.1 µM.

`O=C(O)c1cc2c([nH]1)C[C@@H]1[C@H](CCc3ccccc3)[C@H]21` (racemic) [Compound 143, ±(1S,1aS,5aR)-1-phenethyl-1a,4,5,5a-tetrahydro-1H-4-aza-cyclopropa[α]pentalene-3-carboxylic acid]: the IC50 was no more than 0.1 µM.

In the case of `O=C(O)c1cc2c([nH]1)C[C@@H]1[C@@H](c3ccccc3)[C@H]21` (racemic) [Compound 144, ±(1R,1aR,5aR)-1-phenyl-1a,4,5,5a-tetrahydro-1H-4-aza-cyclopropa[α]pentalene-3-carboxylic acid], the IC50 was no more than 100 µM.

Consider `CC1CCc2[nH]c(C(=O)O)cc21` (single isomer, unassigned) [Compound 5, 4-methyl-1,4,5,6-tetrahydrocyclopenta[b]pyrrole-2-carboxylic acid], for which the concentration for half-maximal inhibition (IC50) was no more than 1 µM.

As to `CC1CCc2[nH]c(C(=O)O)cc21` (single isomer, unassigned) [Compound 6, 4-methyl-1,4,5,6-tetrahydrocyclopenta[b]pyrrole-2-carboxylic acid], the IC50 is no more than 100 µM.

`CCCC1CCc2[nH]c(C(=O)O)cc21` (single isomer, unassigned) [Compound 9, 4-propyl-1,4,5,6-tetrahydrocyclopenta[b]pyrrole-2-carboxylic acid] displayed an IC50 of no more than 100 µM.

`O=C(O)c1cc2c([nH]1)CCC2Cc1ccc(Cl)cc1` (single isomer, unassigned) [Compound 15, 4-(4-chlorobenzyl)-1,4,5,6-tetrahydrocyclopenta[b]pyrrole-2-carboxylic acid] yielded an IC50 of no more than 0.1 µM.

A word on the IC50: it is the concentration that inhibits the measured activity by half.
